Measurements taken from patent US20210330611A1, “THERAPY FOR NEUROLOGICAL DISEASES/DISORDERS” (priority 2020, published 2021).
Structures can show the parent of a compound that is named as a salt. Where two headings read alike, the source gives them in different places.

Assays:
[1] = tested on: fibrin-induced microglia activation; assay: Image-based assay of fibrin-induced microglia activation (HTS and dose response); assay type: cell-based, rat; conditions: for inhibition at 10 µM: read-out: Fibrin % inhibition
[2] = tested on: LPS-induced microglia activation; assay: Image-based assay of LPS-induced microglia activation (HTS and dose response); assay type: cell-based, rat
[3] = tested on: fibrin- and LPS-induced microglia activation; assay: cells; assay type: cell-based, rat
[4] = tested on: primary rat microglia;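 for Fibrin % cell toxicity: share of dead cells sized under 150 µm2 at 10 µM in fibrin-stimulated microglia HTS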
[5] = tested on: primary rat microglia; remark: listed apart in the source;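 for Fibrin % cell toxicity: share of dead cells sized under 150 µm2 at 10 µM in fibrin-stimulated microglia HTS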
[6] = Rattus norvegicus, Microglia, 48 h, read-out: LPS % inhibition
[7] = HTS of 1907 compounds, quadrant by fibrin and LPS inhibition
[8] = primary microglia HTS, fibrin stimulation, increased cell size (>800 μm^2) as marker of activation
[9] = primary microglia HTS, LPS stimulation; increased cell size (>800 μm^2) as marker of activation
[10] = quadrant by fibrin and LPS inhibition in HTS of 1907 compounds
[11] = Rattus norvegicus, Microglia, primary microglia HTS, fibrin stimulation, compounds at 10 μM
[12] = Rattus norvegicus, Microglia, primary microglia HTS, LPS stimulation, compounds at 10 μM; read-out: LPS % inhibition
[13] = classification by fibrin and LPS inhibition, HTS at 10 μM

SMILES	inhibition at 10 µM ([1]; Rattus norvegicus, Microglia)	inhibition at 10 µM [2, 6]	Quadrant (FIG. 5b) [3]	Fibrin % cell toxicity ([4]; rat)	LPS % cell toxicity ([5]; rat)	further results
N[C@@H](CCC(=O)N[C@@H](CS)C(=O)NCC(=O)O)C(=O)O [Glutathione]	-5%	13%	Q4	1%	0%	–
O=C1Cc2cc(CCN3CCN(c4nsc5ccccc45)CC3)c(Cl)cc2N1 [Ziprasidone Mesylate, Ziprasidone]	–	–	–	–	–	Fibrin % inhibition ([1]; primary microglia HTS, 10 μM, fibrin-stimulated, cell size >800 μm^2 as marker of activation): 14%; LPS % inhibition ([2]; primary microglia HTS, 10 μM, LPS-stimulated, cell size >800 μm^2 as marker of activation): 35%; Quadrant (FIG. 5b) [3, 7]: Q4; Fibrin % cell toxicity [4]: 1%; LPS % cell toxicity [5]: 1%
CC(C)(Oc1ccc(C2CC2(Cl)Cl)cc1)C(=O)O (centres unmarked) [Ciprofibrate]	–	–	–	0%	1%	inhibition at 10 µM ([1]; Rattus norvegicus, Microglia, primary HTS, 10 μM, fibrin-stimulated primary microglia): -16%; inhibition at 10 µM ([2]; Rattus norvegicus, Microglia, primary HTS, 10 μM, LPS-stimulated primary microglia; read-out: LPS % inhibition): 16%; Quadrant (FIG. 5b) ([3]; primary HTS, 10 μM): Q4
Cc1cc(C)nc(NS(=O)(=O)c2ccc(N)cc2)n1 [Sulfamethazine]	–	–	–	0%	0%	inhibition at 10 µM ([1]; Rattus norvegicus, Microglia, primary microglia HTS, 10 μM, fibrin-stimulated, cell size >800 μm^2 as marker of activation): -9%; inhibition at 10 µM ([2]; Rattus norvegicus, Microglia, primary microglia HTS, 10 μM, LPS-stimulated, cell size >800 μm^2 as marker of activation; read-out: LPS % inhibition): 14%; Quadrant (FIG. 5b) [3, 7]: Q4
NC[C@@H]1O[C@H](O[C@H]2[C@@H](O)[C@H](O[C@@H]3[C@@H](O)[C@H](N)C[C@H](N)[C@H]3O[C@H]3O[C@H](CN)[C@@H](O)[C@H](O)[C@H]3N)O[C@@H]2CO)[C@H](N)[C@@H](O)[C@@H]1O.O=S(=O)(O)O [Neomycin Sulfate]	–	–	–	–	–	Fibrin % inhibition [1, 8]: 15%; LPS % inhibition [2, 9]: 18%; Quadrant (FIG. 5b) [3, 10]: Q4; Fibrin % cell toxicity [4]: 0%; LPS % cell toxicity [5]: 0%
CC(=O)[C@]1(O)Cc2c(O)c3c(c(O)c2[C@@H](O[C@H]2C[C@H](N)[C@H](O)[C@H](C)O2)C1)C(=O)c1ccccc1C3=O.Cl [Idarubicin, Idarubicin Hydrochloride]	–	–	–	–	–	Fibrin % inhibition [1, 8]: 106%; LPS % inhibition [2, 9]: 106%; Quadrant (FIG. 5b) [3, 10]: Q2; Fibrin % cell toxicity [4]: 90%; LPS % cell toxicity [5]: 40%
CC(=O)OCC(=O)[C@@]1(O)[C@H](C)C[C@H]2[C@@H]3CCC4=CC(=O)C=C[C@]4(C)[C@@]3(F)[C@@H](O)C[C@@]21C [Dexamethasone acetate, reference compound]	112%	105%	Q2	4%	7%	IC50 ([1]; Rattus norvegicus, Microglia, read-out: fib_IC50 (uM)): 0.002 µM; IC50 ([2]; Rattus norvegicus, Microglia, read-out: LPS_IC50 (uM)): 0.002 µM
O=c1[nH]cnc2c1ncn2[C@H]1CC[C@@H](CO)O1 [Didanosine]	–	–	–	1%	0%	inhibition at 10 µM [1, 11]: -8%; inhibition at 10 µM [2, 12]: -2%; Quadrant (FIG. 5b) [3, 13]: Q4
O=C(CCCN1CCC(O)(c2ccc(Cl)cc2)CC1)c1ccc(F)cc1 [Haloperidol]	-22%	12%	Q4	1%	1%	–
CC(C)(O)c1ccccc1CC[C@@H](SCC1(CC(=O)O)CC1)c1cccc(/C=C/c2ccc3ccc(Cl)cc3n2)c1 [Montelukast Sodium]	–	–	Q4	1%	0%	Fibrin % inhibition [1]: 21%; LPS % inhibition [2]: 16%
CCCCC1C(=O)N(c2ccccc2)N(c2ccccc2)C1=O [Phenylbutazone]	–	–	–	0%	0%	inhibition at 10 µM ([1]; Rattus norvegicus, Microglia, primary microglia HTS, fibrin stimulation, cell size >800 μm2 as marker of activation): -23%; inhibition at 10 µM ([2]; Rattus norvegicus, Microglia, 48 h; read-out: LPS % inhibition): 5%; Quadrant (FIG. 5b) ([3]; classification by fibrin and LPS inhibition in HTS): Q4
C[n+]1ccccc1/C=N/O [Pralidoxime]	-12%	17%	Q4	1%	0%	–
C=CCN1CC[C@]23c4c5ccc(O)c4O[C@H]2C(=O)CC[C@@]3(O)[C@H]1C5 [Naloxone]	–	21%	Q4	1%	1%	Fibrin % inhibition [1]: −41%
O=c1oc2ccccc2c(O)c1Cc1c(O)c2ccccc2oc1=O [Dicoumarol]	–	–	–	1%	0%	inhibition at 10 µM [1, 11]: -24%; inhibition at 10 µM [2, 12]: 18%; Quadrant (FIG. 5b) [3, 13]: Q4
c1ccc(-c2ccc(C(c3ccccc3)n3ccnc3)cc2)cc1 (centres unmarked) [Bifonazole]	-3%	–	Q4	1%	0%	inhibition at 10 µM ([2]; Rattus norvegicus, Microglia, read-out: LPS % inhibition): 14%
